From patent publication US20120142705A1, “ISATIN AND OXINDOLE COMPOUNDS” (priority 2010, published 2012)

What follows are compounds tested against T1, Recombinant human liver GK1 (GST-GK) (Homo sapiens, UniProt P35557) (assay: In vitro glucokinase activity, G6PDH-coupled spectrophotometric assay). Conditions: 5 mM D-glucose, 30° C., pH 7.1.
T1 construct: made in house; host or cells: E. coli
T1 sequence (P35557 1-466 isoform P35557-2): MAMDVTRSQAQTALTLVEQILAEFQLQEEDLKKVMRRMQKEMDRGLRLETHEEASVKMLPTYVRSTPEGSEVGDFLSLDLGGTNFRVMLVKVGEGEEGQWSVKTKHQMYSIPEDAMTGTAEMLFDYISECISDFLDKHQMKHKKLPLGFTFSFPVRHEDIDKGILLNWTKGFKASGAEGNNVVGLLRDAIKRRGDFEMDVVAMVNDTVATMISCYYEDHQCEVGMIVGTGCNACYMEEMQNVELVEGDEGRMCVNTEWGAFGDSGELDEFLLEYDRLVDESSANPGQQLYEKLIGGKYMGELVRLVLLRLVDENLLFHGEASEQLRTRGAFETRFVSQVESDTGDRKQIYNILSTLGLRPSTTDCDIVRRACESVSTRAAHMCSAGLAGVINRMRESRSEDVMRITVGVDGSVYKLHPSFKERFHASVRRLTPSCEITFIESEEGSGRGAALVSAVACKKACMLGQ
Format: biochemical
Experimental: Glucokinase In Vitro Assay Protocol: Glucokinase (GK) was assayed by coupling the production of glucose-6-phosphate to the generation of NADH with glucose-6-phosphate dehydrogenase (G6PDH, 0.75-1 kunits/mg; Boehringer Mannheim, Indianapolis, Ind.) from Leuconostoc mesenteroides as the coupling enzyme (Scheme 2).
Recombinant human liver GK1 was expressed in E. coli as a glutathione S-transferase fusion protein (GST-GK) [Liang et al, 1995] and was purified by chromatography over a glutathione-Sepharose 4B affinity column using the procedure provided by the manufacturer (Amersham Pharmacia Biotech, Piscataway, N.J.).
The assay was conducted at 30° C. in a flat bottom 96-well tissue culture plate from Costar (Cambridge, Mass.) with a final incubation volume of 120 μL. The incubation reaction contained the following: 25 mM Hepes buffer (pH 7.1), 25 mM KCl, 5 mM D-glucose, 1 mM ATP, 1.8 mM NAD, 2 mM MgCl2, 1 μM sorbitol-6-phosphate, 1 mM dithiothreitol, test drug or 10% dimethylsulfoxide, ˜7 units/ml G6PDH, and GK (see below). All organic reagents were >98% pure and were from Boehringer Mannheim with the exceptions of D-glucose and Hepes which were from Sigma Chemical Co, St Louis, Mo. Test compounds were dissolved in dimethylsulfoxide and were added to the incubation reaction minus GST-GK in a volume of 12 μL to yield a final dimethylsulfoxide concentration of 10%. This mix was pre-incubated in the temperature controlled chamber of a SPECTRAmax 250 microplate spectrophotometer (Molecular Devices Corporation, Sunnyvale, Calif.) for 10 minutes to allow temperature equilibrium and then the reaction was started by the addition of 20 μL GST-GK.
After addition of enzyme, the increase in optical density (OD) at 340 nm was monitored spectrophotometrically to determine the rate of change (OD340 per min). The GK activity (OD340/min) in control wells (10% dimethylsulfoxide minus GK activators) was compared with the activity in wells containing test GK activators, and the concentration of activator that produced a 50% increase in the activity of GK, i.e., the SC1.5, was calculated.
`CS(=O)(=O)c1ccc2c(c1)N(C(CC1CCCC1)C(=O)Nc1nccs1)C(=O)C2` (centres unmarked) [Example 138, 3-Cyclopentyl-2-(6-methanesulfonyl-2-oxo-2,3-dihydro-indol-1-yl)-N-thiazol-2-yl-propionamide] was tested, and the “SC1.5 (concentration of activator that produced a 50% increase in the activity of GK)” value was 2.94 µM.
`Cn1ccc(NC(=O)C(CC2CCCC2)N2C(=O)C(=O)c3ccc(Cl)cc32)n1` (centres unmarked) [Example 119, 2-(6-Chloro-2,3-dioxo-2,3-dihydro-indol-1-yl)-3-cyclopentyl-N-(1-methyl-1H-pyrazol-3-yl)-propionamide] was tested, and the “SC1.5 (concentration of activator that produced a 50% increase in the activity of GK)” value was 2.24 µM.
With `O=C(Nc1nccs1)C(CC1CCCC1)N1C(=O)Cc2cc(Cl)ccc21` (centres unmarked) [Example 98, 2-(5-Chloro-2-oxo-2,3-dihydro-indol-1-yl)-3-cyclopentyl-N-thiazol-2-yl-propionamide] the “SC1.5 (concentration of activator that produced a 50% increase in the activity of GK)” value was 1.22 µM.
For `CC(C)CC(C(=O)Nc1cnccn1)N1C(=O)Cc2cc(Cl)ccc21` (centres unmarked) [Example 106, 2-(5-Chloro-2-oxo-2,3-dihydro-indol-1-yl)-4-methyl-pentanoic acid pyrazin-2-ylamide], the “SC1.5 (concentration of activator that produced a 50% increase in the activity of GK)” value was 20.67 µM.
In the case of `CC(C)CC(C(=O)Nc1ccccn1)N1C(=O)Cc2cc(Cl)ccc21` (centres unmarked) [Example 108, 2-(5-Chloro-2-oxo-2,3-dihydro-indol-1-yl)-4-methyl-pentanoic acid pyridin-2-ylamide], the “SC1.5 (concentration of activator that produced a 50% increase in the activity of GK)” value is reported as 4.95 µM.
For `O=C(Nc1cnccn1)C(CC1CCCC1)N1C(=O)Cc2ccccc21` (centres unmarked) [Example 2, 3-Cyclopentyl-2-(2-oxo-2,3-dihydro-indol-1-yl)-N-pyrazin-2-yl-propionamide], the “SC1.5 (concentration of activator that produced a 50% increase in the activity of GK)” value was 5.93 µM.
`Cc1ccc2c(c1)CC(=O)N2C(CC(C)C)C(=O)Nc1cnccn1` (centres unmarked) [Example 91, 4-Methyl-2-(5-methyl-2-oxo-2,3-dihydro-indol-1-yl)-pentanoic acid pyrazin-2-ylamide] was tested, and the “SC1.5 (concentration of activator that produced a 50% increase in the activity of GK)” value was 28.45 µM.
In the case of `O=C1C(=O)N(C(CC2CCCC2)C(=O)Nc2nccs2)c2ccc(Br)cc21` (centres unmarked) [Example 63, 2-(5-Bromo-2,3-dioxo-2,3-dihydro-indol-1-yl)-3-cyclopentyl-N-thiazol-2-yl-propionamide], the “SC1.5 (concentration of activator that produced a 50% increase in the activity of GK)” value is reported as 2.18 µM.
With `COc1ccc2c(c1)C(=O)C(=O)N2C(CC1CCCC1)C(=O)Nc1cnccn1` (centres unmarked) [Example 45, 3-Cyclopentyl-2-(5-methoxy-2,3-dioxo-2,3-dihydro-indol-1-yl)-N-pyrazin-2-yl-propionamide] the “SC1.5 (concentration of activator that produced a 50% increase in the activity of GK)” value was 12.29 µM.
`CC(C)CC(C(=O)Nc1nccs1)N1C(=O)C(=O)c2ccc(Cl)cc21` (centres unmarked) [Example 109, 2-(6-Chloro-2,3-dioxo-2,3-dihydro-indol-1-yl)-4-methyl-pentanoic acid thiazol-2-ylamide] was tested, and the “SC1.5 (concentration of activator that produced a 50% increase in the activity of GK)” value was 3.29 µM.
`CC(C)CC(C(=O)Nc1nccs1)N1C(=O)Cc2c(Cl)cccc21` (centres unmarked) [Example 28, 2-(4-Chloro-2-oxo-2,3-dihydro-indol-1-yl)-4-methyl-pentanoic acid thiazol-2-ylamide] was tested, and the “SC1.5 (concentration of activator that produced a 50% increase in the activity of GK)” value was 9.95 µM.
For `Cn1ccc(NC(=O)C(CC2CCCC2)N2C(=O)Cc3ccc(Cl)cc32)n1` (centres unmarked) [Example 124, 2-(6-Chloro-2-oxo-2,3-dihydro-indol-1-yl)-3-cyclopentyl-N-(1-methyl-1H-pyrazol-3-yl)-propionamide], the “SC1.5 (concentration of activator that produced a 50% increase in the activity of GK)” value was 1.1 µM.
`CC(C)CC(C(=O)Nc1ccccn1)N1C(=O)C(=O)c2cc(Cl)ccc21` (centres unmarked) [Example 102, 2-(5-Chloro-2,3-dioxo-2,3-dihydro-indol-1-yl)-4-methyl-pentanoic acid pyridin-2-ylamide] was tested, and the “SC1.5 (concentration of activator that produced a 50% increase in the activity of GK)” value was 16.89 µM.
With `CC(C)CC(C(=O)Nc1ccccn1)N1C(=O)C(=O)c2c(Cl)cccc21` (centres unmarked) [Example 18, 2-(4-Chloro-2,3-dioxo-2,3-dihydro-indol-1-yl)-4-methyl-pentanoic acid pyridin-2-ylamide] the “SC1.5 (concentration of activator that produced a 50% increase in the activity of GK)” value was 13.42 µM.
For `CC(C)CC(C(=O)Nc1cnccn1)N1C(=O)Cc2c(Cl)cccc21` (centres unmarked) [Example 25, 2-(4-Chloro-2-oxo-2,3-dihydro-indol-1-yl)-4-methyl-pentanoic acid pyrazin-2-ylamide], the “SC1.5 (concentration of activator that produced a 50% increase in the activity of GK)” value was 16.78 µM.
With `O=C(Nc1nccs1)C(CC1CCCC1)N1C(=O)Cc2ccccc21` (centres unmarked) [Example 3, 3-Cyclopentyl-2-(2-oxo-2,3-dihydro-indol-1-yl)-N-thiazol-2-yl-propionamide] the “SC1.5 (concentration of activator that produced a 50% increase in the activity of GK)” value was 3.3 µM.
In the case of `CC(C)CC(C(=O)Nc1nccs1)N1C(=O)Cc2ccc(Cl)cc21` (centres unmarked) [Example 115, 2-(6-Chloro-2-oxo-2,3-dihydro-indol-1-yl)-4-methyl-pentanoic acid thiazol-2-ylamide], the “SC1.5 (concentration of activator that produced a 50% increase in the activity of GK)” value is reported as 1.48 µM.
In the case of `Cc1ccc2c(c1)CC(=O)N2C(CC(C)C)C(=O)Nc1nccs1` (centres unmarked) [Example 88, 4-Methyl-2-(5-methyl-2-oxo-2,3-dihydro-indol-1-yl)-pentanoic acid thiazol-2-ylamide], the “SC1.5 (concentration of activator that produced a 50% increase in the activity of GK)” value is reported as 22.88 µM.
In the case of `CC(C)CC(C(=O)Nc1nccs1)N1C(=O)C(=O)c2cc(OC(F)(F)F)ccc21` (centres unmarked) [Example 40, 2-(2,3-Dioxo-5-trifluoromethoxy-2,3-dihydro-indol-1-yl)-4-methyl-pentanoic acid thiazol-2-ylamide], the “SC1.5 (concentration of activator that produced a 50% increase in the activity of GK)” value is reported as 5.97 µM.
For `CC(C)CC(C(=O)Nc1ccccn1)N1C(=O)C(=O)c2cc(Br)ccc21` (centres unmarked) [Example 69, 2-(5-Bromo-2,3-dioxo-2,3-dihydro-indol-1-yl)-4-methyl-pentanoic acid pyridin-2-ylamide], the “SC1.5 (concentration of activator that produced a 50% increase in the activity of GK)” value was 7.43 µM.
With `CC(C)CC(C(=O)Nc1cnccn1)N1C(=O)Cc2cc(Br)ccc21` (centres unmarked) [Example 75, 2-(5-Bromo-2-oxo-2,3-dihydro-indol-1-yl)-4-methyl-pentanoic acid pyrazin-2-ylamide] the “SC1.5 (concentration of activator that produced a 50% increase in the activity of GK)” value was 11.4 µM.

Same assay, conditions: @ 30 uM; 5 mM D-glucose, 30° C.
Compound `CC(C)CC(C(=O)Nc1cnccn1)N1C(=O)C(=O)c2cc(Cl)ccc21` (centres unmarked) [Example 103, 2-(5-Chloro-2,3-dioxo-2,3-dihydro-indol-1-yl)-4-methyl-pentanoic acid pyrazin-2-ylamide] has a fold induction at 30 µM of 1.3.
`CC(C)CC(C(=O)Nc1ccn(C)n1)N1C(=O)C(=O)c2cc(Br)ccc21` (centres unmarked) [Example 70, 2-(5-Bromo-2,3-dioxo-2,3-dihydro-indol-1-yl)-4-methyl-pentanoic acid (1-methyl-1H-pyrazol-3-yl)-amide] was tested, and the fold induction at 30 µM was 1.32.
Compound `CC(C)CC(C(=O)Nc1nccs1)N1C(=O)C(=O)c2cc(Br)ccc21` (centres unmarked) [Example 71, 2-(5-Bromo-2,3-dioxo-2,3-dihydro-indol-1-yl)-4-methyl-pentanoic acid thiazol-2-ylamide] has a fold induction at 30 µM of 1.5.
`CC(C)CC(C(=O)Nc1ccn(C)n1)N1C(=O)Cc2cc(Cl)ccc21` (centres unmarked) [Example 107, 2-(5-Chloro-2-oxo-2,3-dihydro-indol-1-yl)-4-methyl-pentanoic acid (1-methyl-1H-pyrazol-3-yl)-amide] showed a fold induction at 30 µM of 1.22.
For `CC(C)CC(C(=O)Nc1ccn(C)n1)N1C(=O)Cc2c(Cl)cccc21` (centres unmarked) [Example 27, 2-(4-Chloro-2-oxo-2,3-dihydro-indol-1-yl)-4-methyl-pentanoic acid (1-methyl-1H-pyrazol-3-yl)-amide], the fold induction at 30 µM was 1.39.
